Assays:
[1] = test system: J774A.1 cells transfected with Wt-mMLKL (1–464)-gyrase; assay: PI uptake after chemically induced mMLKL-gyrase dimerization; format: cell-based, mouse; details: 20 μM overnight
Description: PI uptake assays were performed in triplicate to evaluate pore formation on the plasma membrane. THP‑1 cells (2 × 10⁵ cells/well) were seeded in black-walled, clear-bottom 96-well plates and treated with TBZ (TNF, BV6, and z-VAD-FMK) in the presence or absence of candidate compounds for 8 h to induce necroptosis. […] PI (556463, BD Biosciences, San Jose, CA, USA) was added at a final concentration of 1 μg/mL for 10 min before measurement. Fluorescence was recorded using a Varioskan Flash 3001 plate reader (Thermo Fisher Scientific, Waltham, MA, USA).
J774A.1 cells were transfected with plasmids encoding mMLKL (1–464)-gyrase. mMLKL-gyrase expression was induced with 10 ng/mL doxycycline (Dox), followed by 700 nM coumermycin treatment for 4 h to promote dimerization. Then, Ox-APO (20 μM) was added, and the cells were incubated overnight. PI uptake was measured using a microplate reader, and the values were normalized to those of the untreated group. Data represent mean ± SEM (n = 3). **p < 0.01, ***p < 0.001, one-way ANOVA. The expression of mMLKL-gyrase was confirmed by SDS-PAGE of WCLs, followed by immunoblotting with the indicated antibodies. The arrowhead indicates endogenous MLKL, while the tailed arrow denotes the mMLKL–gyrase fusion protein.

Nt-hMLKL^F148A = target: T1, Nt-hMLKL^F148A (Homo sapiens, UniProt Q8NB16, F148A); assay: SPR binding to Nt-hMLKL F148A mutant; details: versus Nt-hMLKL
T1 construct: an N-terminal domain (Nt-hMLKL, amino acids 2–154, MW: 23 kDa) involved in oligomerization; His (N); made in house; host or cells: E. coli BL21
T1 sequence (Q8NB16 2-154 F148A): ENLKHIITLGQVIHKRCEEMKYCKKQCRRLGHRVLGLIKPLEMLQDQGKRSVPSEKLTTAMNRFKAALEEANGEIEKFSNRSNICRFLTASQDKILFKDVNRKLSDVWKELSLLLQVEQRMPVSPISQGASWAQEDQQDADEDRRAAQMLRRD
Text: The hMLKL plasmid (RC213152, OriGene, Rockville, MD, USA), and recombinant Wt-hMLKL (ab241453, Abcam) and Wt-mMLKL (MBS1379843, MyBioSource, San Diego, CA, USA) proteins were purchased. Nt-hMLKL (2–154), Nt-mMLKL (1–180), and Ct-hMLKL (183–471) were generated using the pBT7-N-His vector. Nt-hMLKL^C86A, Nt-hMLKL^F148A, -hMLKL^C86A/L89A/D94A, and Nt-hMLKL^R145A/R146A/F148A/M150A were generated using the Site-directed Mutagenesis Kit (EZ004S, Enzynomics, S. Korea). These constructs were subcloned into pBT7-N-His and pET-15b plasmid vectors. E. coli BL21 cells transformed with the cloned expression vectors were cultured in LB medium and supplemented with 100 μg/mL ampicillin until an OD at 600 nm of 0.5–0.6 was reached. The cultures were induced by 1 mM IPTG (367-93-1, Sigma-Aldrich). The cells were lysed and centrifuged. The clear supernatants were subjected to Ni-NTA affinity chromatography (175018169, QIAGEN, Hilden, Germany). Plasmids encoding mMLKL (1–464)–gyrase fusion constructs were kindly provided by Prof. […]
The interactions of Wt-hMLKL, Wt-mMLKL, Nt-mMLKL, Nt, and Ct-hMLKL proteins with Re-APO or Ox-APO were detected through SPR analysis using Biacore™ T200 (Cytiva, Marlborough, MA, USA). […] Sensorgrams were recorded and analyzed in real-time using the control software in the BIAcore T200 system. All data were analyzed using the BIA evaluation software (Cytiva).

[2] = Auto-oxidation of APO in solution by real-time 1D 1H NMR; format: physicochemical; details: freshly dissolved in DPBS, 25 °C, 36 h
Description: Fig. 2 Effect of redox-sensitive APO on MLKL oligomerization. A Chemical structure of APO. APO undergoes auto-oxidation to form the oxidized form (Ox-APO), while the addition of DTT preserves the reduced form (Re-APO). The red highlights indicate the sites where APO loses hydrogen and electrons during the oxidation process. B Real-time 1D ^1H NMR spectra showing the degree of oxidation of APO. APO was dissolved from its powdered form in DPBS and incubated at 25 °C for 36 h. Real-time 1D ^1H NMR spectra were measured at a 2 h intervals after filtration through a 0.2 μm syringe filter to remove precipitates. […] C MLKL oligomerization is inhibited by APO. THP-1 cells were treated with TBZ and Re-APO or Ox-APO for 8 h. Western blot analysis of WCLs was performed under non-reducing and reducing conditions using the indicated antibodies. Percentage changes of p-MLKL oligomer band relative to GAPDH were shown. The p value for MLKL oligomer band intensity was calculated based on the average intensity of the tetramer and octamer bands. Octa octamer, Tetra tetramer, Mono monomer. Mean ± SEM (n = 3). **p < 0.001, ns not significant, one-way ANOVA. D THP-1 cells were treated with TBZ and Ox-APO or Re-APO for 8 h and then stained with DAPI and MLKL for confocal microscopy. […] The signal intensity of MLKL fluorescence from the plasma membrane to the cytosol was measured using FluoView FV1000 software. […]

| SMILES | PI-positive cells after Dox and coumermycin stimulation [1] | fold weaker binding of single mutant (Nt-hMLKL^F148A) | time to saturation of APO oxidation [2] |
| --- | --- | --- | --- |
| CN1CCc2cccc3c4c(cc1c23)C=CC(=O)C4=O [Ox-APO] | markedly reduced | ~ 10 fold | – |
| CN1CCc2cccc3c2[C@@H]1Cc1ccc(O)c(O)c1-3 [S62, (6aS)-6-methyl-5,6,6a,7-tetrahydro-4H-dibenzo[de,g]quinoline-10,11-diol] | – | – | 24 h |

Reference: PMC12518639, “Apomorphine is a novel necroptosis inhibitor targeting mixed lineage kinase domain-like protein oligomerization” (Cell Death Discovery, 2025)
